Drawing on patent US11535606B2, “Substituted quinoline-8-carbonitrile derivatives with androgen receptor degradation activity and uses thereof” (ACCUTAR BIOTECHNOLOGY INC., priority 2019, dated 2022), this text covers DC50 for 19 compounds.

Experiment [1] deals with T1, androgen receptor (AR) (Homo sapiens, UniProt P10275, T878A).
T1 construct: endogenous in cells; host or cells: LNCAP
T1 sequence (P10275 1-920 T878A): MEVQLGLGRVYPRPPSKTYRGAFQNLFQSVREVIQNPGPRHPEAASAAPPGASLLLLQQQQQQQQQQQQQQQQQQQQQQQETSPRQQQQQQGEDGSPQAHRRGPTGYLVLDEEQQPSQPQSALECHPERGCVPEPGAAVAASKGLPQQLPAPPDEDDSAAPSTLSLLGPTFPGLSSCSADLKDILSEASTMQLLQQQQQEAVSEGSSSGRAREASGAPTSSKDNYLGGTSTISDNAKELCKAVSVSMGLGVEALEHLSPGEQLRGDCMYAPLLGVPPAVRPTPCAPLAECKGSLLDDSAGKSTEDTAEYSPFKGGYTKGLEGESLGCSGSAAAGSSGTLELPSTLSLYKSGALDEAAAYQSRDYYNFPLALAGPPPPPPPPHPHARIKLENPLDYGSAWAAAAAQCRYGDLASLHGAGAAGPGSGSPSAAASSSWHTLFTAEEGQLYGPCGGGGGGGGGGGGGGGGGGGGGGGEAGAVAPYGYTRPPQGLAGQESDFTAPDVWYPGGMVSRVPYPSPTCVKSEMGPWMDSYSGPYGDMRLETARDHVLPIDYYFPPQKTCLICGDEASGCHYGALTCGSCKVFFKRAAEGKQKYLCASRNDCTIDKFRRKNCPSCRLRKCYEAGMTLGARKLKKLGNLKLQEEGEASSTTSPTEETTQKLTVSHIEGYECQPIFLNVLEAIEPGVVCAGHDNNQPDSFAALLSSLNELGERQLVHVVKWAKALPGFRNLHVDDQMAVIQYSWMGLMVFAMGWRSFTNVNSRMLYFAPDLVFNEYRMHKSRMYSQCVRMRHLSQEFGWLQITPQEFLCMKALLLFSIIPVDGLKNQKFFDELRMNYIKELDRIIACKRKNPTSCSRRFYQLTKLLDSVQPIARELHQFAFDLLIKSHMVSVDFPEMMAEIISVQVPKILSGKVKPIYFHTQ
Nature of the experiment: AR degradation activity in LNCAP cells (Western blot). The settings on record: 24 hours after administration, DC50 = concentration needed for 50% target protein degradation. It counts as cell-based. The method, then:
(§1) LNCAP, VCAP and 22Rv1 cells were plated in 24-well plates at 1.5×10E5 cells/well in the RPMI growth medium containing 10% FBS and 1% Penicillin Streptomycin, and then incubated at 37° C. overnight. The following day, the test compound was administered to the cells by using 1000× compound stock solution prepared in DMSO at various concentrations. After administration of the compound, the cells were then incubated at 37° C. for 24 hours. Upon completion, the cells were washed with PBS and protein was collected in Laemmli sample buffer (1×; VWR International). Proteins in cell lysate were separated by SDS-PAGE and transferred to Odyssey nitrocellulose membranes (Licor) with Iblot® dry blotting transfer system (ThermoFisher). Nonspecific binding was blocked by incubating membranes with Intercept Blocking Buffer (Licor) for 1 hour at room temperature with gentle shaking. The membranes were then incubated overnight at 4° C. with Primary antibodies rabbit anti-AR (1:1,000, Cell Signaling, 5153) and mouse anti-GAPDH (1:5,000, Santa Cruz Biotechnology, sc-47724) diluted in Intercept Blocking Buffer containing 0.1% Tween 20. After washing 3 times with TBS-T, the membranes were incubated with IRDye® 800CW goat anti-mouse IgG (1:20,000, Licor) or IRDye® 800CW goat anti-rabbit IgG (1:20,000, Licor) for 1 hour. After TBS-T washes, membranes were rinsed in TBS and scanned on Odyssey® CLx Imaging System (Licor). The bands were quantified using Image Studio™ Software (Licor).
(§2) Table 4 summarizes the androgen receptor (AR) degradative activity of exemplary compounds in LNCAP, VCAP and 22Rv1 cell lines 24 hours after administration. DC50: compound concentration needed for 50% target protein degradation.

Experiment [2] deals with T2, androgen receptor (AR) (Homo sapiens, UniProt P10275).
T2 construct: endogenous in cells; host or cells: VCAP
T2 sequence (P10275 1-920): T1 sequence (P10275 1-920 T878A) with A878T
Kind of experiment: AR degradation activity in VCAP cells (Western blot). It counts as cell-based. The following applies: 24 hours after administration, DC50 = concentration needed for 50% target protein degradation. The protocol: as §1, §2
In general terms: A western blot detects proteins with antibodies after separation by electrophoresis.

Where a chain is given by its changes, count along the chain named.

With `N#Cc1ccc(OC2CCC(NC(=O)c3ccc(N4CCC(CN5CCN(c6cc7c(cc6F)C(=O)N(C6CCC(=O)NC6=O)C7=O)CC5)CC4)nc3)CC2)c2cccnc12` (centres unmarked) [Compound 3-35], on androgen receptor (AR) [1], the DC50 was less than 10 nM.

For `N#Cc1ccc(O[C@H]2CC[C@H](NC(=O)c3ccc(N4CCC(CN5CCN(c6ccc7c(c6)C(=O)N(C6CCC(=O)NC6=O)C7=O)CC5)CC4)cc3)CC2)c2cccnc12` (some centres unmarked) [Compound 3-18, N-(4-((8-cyanoquinolin-5-yl)oxy)cyclohexyl)-4-(4-((4-(2-(2,6-dioxopiperidin-3-yl)-1,3-dioxoisoindolin-5-yl)piperazin-1-yl)methyl)piperidin-1-yl)benzamide], the DC50 on androgen receptor (AR) [2] and at androgen receptor (AR) [1] was less than 10 nM each time. For the compound `N#Cc1ccc(O[C@H]2CC[C@H](NC(=O)c3cnc(N4CC[C@H](CN5CCN(c6ccc7c(c6)C(=O)N(C6CCC(=O)NC6=O)C7=O)CC5)C4)nc3)CC2)c2cccnc12` (some centres unmarked) [Compound 3-55], at androgen receptor (AR) [1], the 50% degradation concentration (DC50) is less than 10 nM.

As to `N#Cc1ccc(OC2CCC(NC(=O)c3ccc(N4CCC(CN5CCN(c6ccc7c(c6)C(=O)N(C6CCC(=O)NC6=O)C7=O)CC5)CC4)c(F)c3)CC2)c2cccnc12` (centres unmarked) [Compound 3-19, N-(4-((8-cyanoquinolin-5-yl)oxy)cyclohexyl)-4-(4-((4-(2-(2,6-dioxopiperidin-3-yl)-1,3-dioxoisoindolin-5-yl)piperazin-1-yl)methyl)piperidin-1-yl)-3-fluorobenzamide], the 50% degradation concentration (DC50) at androgen receptor (AR) [2] and at androgen receptor (AR) [1] was less than 10 nM throughout. Take `CC(C)N(CC1CCN(c2ccc(C(=O)NC3CCC(Oc4ccc(C#N)c5ncccc45)CC3)cn2)CC1)C1CC(Oc2ccc3c(c2)C(=O)N(C2CCC(=O)NC2=O)C3=O)C1` (centres unmarked) [Compound 3-11]: the DC50 at androgen receptor (AR) [1] is less than 10 nM. In turn, `N#Cc1ccc(OC2CCC(NC(=O)c3cnc(N4CCC(CN5CCN(c6cc7c(cc6F)C(=O)N(C6CCC(=O)NC6=O)C7=O)CC5)CC4)cn3)CC2)c2cccnc12` (centres unmarked) [Compound 3-52] had a DC50 at androgen receptor (AR) [1] of less than 10 nM. Take `N#Cc1ccc(OC2CCC(NC(=O)c3cnc(N4CCC(CN5CCN(c6ccc7c(c6)CN([C@H]6CCC(=O)NC6=O)C7=O)CC5)CC4)nc3)CC2)c2cccnc12` (some centres unmarked) [Compound 3-30]: the 50% degradation concentration (DC50) at androgen receptor (AR) [2] and on androgen receptor (AR) [1] was less than 10 nM in each case. Consider `N#Cc1ccc(O[C@H]2CC[C@H](NC(=O)c3ccc(N4CCC(CCN5CCN(c6ccc7c(c6)C(=O)N(C6CCC(=O)NC6=O)C7=O)CC5)CC4)cc3)CC2)c2cccnc12` (relative stereo) [Compound 3-22, trans-N-(4-((8-cyanoquinolin-5-yl)oxy)cyclohexyl)-4-(4-(2-(4-(2-(2,6-dioxopiperidin-3-yl)-1,3-dioxoisoindolin-5-yl)piperazin-1-yl)ethyl)piperidin-1-yl)benzamide], for which the DC50 on androgen receptor (AR) [2] and on androgen receptor (AR) [1] was less than 10 nM throughout. Take `N#Cc1ccc(OC2CCC(NC(=O)c3ccc(N4CCC(CN5CCN(c6cc7c(cc6F)C(=O)N(C6CCC(=O)NC6=O)C7=O)CC5)CC4)cc3)CC2)c2cccnc12` (centres unmarked) [Compound 3-49]: at androgen receptor (AR) [1], the half-maximal degradation concentration (DC50) was more than 100 nM. The same measure, in the same setting: as for `N#Cc1ccc(OC2CCC(NC(=O)c3cnc(N4CCC(CN5CCN(c6cc7c(cc6F)C(=O)N(C6CCC(=O)NC6=O)C7=O)CC5)CC4)nc3)CC2)c2cccnc12` (centres unmarked) [Compound 3-51], the figure is less than 10 nM. On the same count and under the same terms, the value for `N#Cc1ccc(O[C@H]2CC[C@H](NC(=O)c3cnc(N4CC[C@@H](CN5CCN(c6ccc7c(c6)C(=O)N(C6CCC(=O)NC6=O)C7=O)CC5)C4)nc3)CC2)c2cccnc12` (some centres unmarked) [Compound 3-54] was less than 10 nM. Same read-out and setting: as for `CN(CC1CCN(c2ccc(C(=O)NC3CCC(Oc4ccc(C#N)c5ncccc45)CC3)cn2)CC1)C1CC(Oc2ccc3c(c2)C(=O)N(C2CCC(=O)NC2=O)C3=O)C1` (centres unmarked) [Compound 3-9], the figure is less than 10 nM; as for `N#Cc1ccc(O[C@H]2CC[C@H](NC(=O)c3cnc(N4CCC(CN5CCN(c6cc7c(cc6F)C(=O)N(C6CCC(=O)NC6=O)C7=O)CC5)CC4)c(F)c3)CC2)c2cccnc12` (some centres unmarked) [Compound 3-53], less than 10 nM. On androgen receptor (AR) [1], `CC(C)N(CC1CCN(c2ccc(C(=O)NC3CCC(Oc4ccc(C#N)c5ncccc45)CC3)nn2)CC1)C1CC(Oc2ccc3c(c2)C(=O)N(C2CCC(=O)NC2=O)C3=O)C1` (centres unmarked) [Compound 3-43] came in with a 50% degradation concentration (DC50) of less than 10 nM. Take `N#Cc1ccc(O[C@H]2CC[C@H](NC(=O)c3cnc(N4CCC(CN5CCN(c6ccc7c(c6)C(=O)N(C6CCC(=O)NC6=O)C7=O)CC5)CC4)nc3)CC2)c2cccnc12` (stereo partly drawn) [Compound 3-15, trans-N-(4-((8-cyanoquinolin-5-yl)oxy)cyclohexyl)-2-(4-((4-(2-(2,6-dioxopiperidin-3-yl)-1,3-dioxoisoindolin-5-yl)piperazin-1-yl)methyl)piperidin-1-yl)pyrimidine-5-carboxamide]: the DC50 at androgen receptor (AR) [2] and at androgen receptor (AR) [1] was less than 10 nM each time. For the compound `N#Cc1ccc(OC2CCC(NC(=O)c3ccc(N4CCC(CN5CCN(c6cc7c(cc6F)C(=O)N(C6CCC(=O)NC6=O)C7=O)CC5)CC4)c(F)c3)CC2)c2cccnc12` (centres unmarked) [Compound 3-50], at androgen receptor (AR) [1], the DC50 was less than 10 nM. Regarding `N#Cc1ccc(O[C@H]2CC[C@H](NC(=O)c3ccc(N4CCC(CN5CCN(c6ccc7c(c6)C(=O)N(C6CCC(=O)NC6=O)C7=O)CC5)CC4)nc3)CC2)c2cccnc12` (relative stereo) [Compound 3-13, trans-N-(4-((8-cyanoquinolin-5-yl)oxy)cyclohexyl)-6-(4-((4-(2-(2,6-dioxopiperidin-3-yl)-1,3-dioxoisoindolin-5-yl)piperazin-1-yl)methyl)piperidin-1-yl)nicotinamide], the half-maximal degradation concentration (DC50) on androgen receptor (AR) [2] and on androgen receptor (AR) [1] was less than 10 nM each time.

For `N#Cc1ccc(O[C@H]2CC[C@H](NC(=O)c3ccc(N4CCC(CN5CCN(c6ccc7c(c6)C(=O)N(C6CCC(=O)NC6=O)C7=O)CC5)CC4)nn3)CC2)c2cccnc12` (stereo partly drawn) [Compound 3-16, trans-N-(4-((8-cyanoquinolin-5-yl)oxy)cyclohexyl)-6-(4-((4-(2-(2,6-dioxopiperidin-3-yl)-1,3-dioxoisoindolin-5-yl)piperazin-1-yl)methyl)piperidin-1-yl)pyridazine-3-carboxamide], the half-maximal degradation concentration (DC50) at androgen receptor (AR) [2] and at androgen receptor (AR) [1] was less than 10 nM in each case. On to `N#Cc1ccc(OC2CCC(NC(=O)c3cnc(N4CCC(CN5CCN(c6ccc7c(c6)C(=O)N(C6CCC(=O)NC6=O)C7=O)CC5)CC4)cn3)CC2)c2cccnc12` (centres unmarked) [Compound 3-17], for which, on androgen receptor (AR) [1], the DC50 was less than 10 nM.

What is called DC50 is the concentration giving 50% degradation.
